Assay results reported in patent US20260007680A1, “Compounds and Their Use as PDE4 Activators” (Mironid Limited, priority 2022, published 2026).

Biological target: T1, PDE4D5 (Homo sapiens, UniProt Q08499)
T1 construct: Using Full-Length Human PDE4 Isoforms; Long Forms PDE4D5, PDE4C3, PDE4B1 and Short Form PDE4B2; made in house; cytosol fraction of cell lysate
Test: PDE assay, activation of PDE4D5 long form (Experiment 1)
Type: biochemical
Settings: for activation at 100 µM: 100 μM test compound, mean % increase in counts over basal activity
Procedure: One suitable method of detecting whether or not a compound is capable of serving as an activator of a PDE4 long form is using a two-step radio-assay procedure described in Experiment 1. In summary, the method involves incubating a PDE4 long form with a test small molecule activator, together with [^3H]-labelled cAMP to assess alterations in the breakdown of cAMP to the 5′-adenosine monophosphate (5′-AMP) product. A sample of the reaction mixture from such an incubation is subsequently treated with snake venom 5′-nucleotidase to allow conversion of the nucleotide [^3H]-labelled 5′-AMP to the uncharged nucleoside [^3H]-labelled adenosine, which can be separated and quantified to assess PDE4 activity and the effect of the test compound (Thompson, W. J. and Appleman, M. M. Biochemistry 10: 311-316, 1971, with some modifications as described in: Marchmont, R. J. and Houslay, M. D. Biochem J. 187: 381-92, 1980).
Experiment 1: Measurement of Modulation of Enzyme Activity by PDE4 Long Form Activators of the Present Invention Using Full-Length Human PDE4 Isoforms; Long Forms PDE4D5, PDE4C3, PDE4B1 and Short Form PDE4B2 • (Marchmont, R. J. and Houslay, M. D. Biochem. J. 187: 381-92, 1980)
For transient transfection of exogenous PDE4 long isoforms, HEK 293 cells were transfected with pcDNA3.1 or pDEST^TM PDE4 expression vectors using Lipofectamine LTX/Plus reagent (Invitrogen) as outlined by the manufacturer.
Where stable cell lines were generated the clonal isolates were expanded to obtain cell lines that stably expressed the full-length human PDE4 long isoforms and the full length human PDE4B2 short isoform. These were called the HEK-PDE4D5, HEK-PDE4B1 and HEK-PDE4B2 cell lines, respectively.
HEK-PDE4D5 cells were seeded out in 100 mm plates and incubated at 37° C. in an atmosphere of 5% CO2, 95% air. Cell lysates were prepared using KHEM buffer [50 mM KCl, 10 mM EGTA, 50 mM HEPES (pH 7.2), 1.92 mM MgCl2].
To prepare the cell lysates, the 100 mm plates containing the cells were placed on ice and washed with ice-cold PBS (phosphate buffered saline, pH 7.4). KHEM buffer (500 μL) was added to the cells. Cells were then scraped off the plate and triturated using a needle (BD Microlance™ 0.8, 40 mm). The lysed cells were then centrifuged at 2000 rpm for 10 minutes to remove cell debris and the supernatant (cell lysate containing recombinant PDE4D5) was transferred to a fresh tube and kept on ice.
The cell lysate containing recombinant PDE4D5 was transferred into a centrifuge tube and placed into an ultracentrifuge (BECKMAN COULTER) and spun at high speed (100,000 g) for 30 minutes at 4° C. The cytosol fraction was then collected and its protein amount determined using a BCA protein assay.
PDE assays were performed in thin walled V-bottomed 96-well plates. The assays were performed at a final concentration of 10 mM Tris/5 mM MgCl2 plus PDE4D5 cell lysate cytosol fraction, containing over-expressed PDE4D5, with and without test compound. The lysate/compound mix were incubated together for 15 min at room temperature on an orbital shaker prior to addition of [^3H] cAMP (final concentration 1 μM [^3H] cAMP; Perkin Elmer) to a final volume of 50 μL per reaction. The reactions were then incubated for 10 minutes at 30° C., terminated by heating for 2 min at 95° C. and allowed to cool. Snake venom (12.5 μL of 1 mg/mL; Crotalus atrox, Sigma) was then added and the plates were agitated and incubated for a further 15 minutes at 30° C. Dowex ion exchange resin (Sigma, chloride form, 200-400 mesh; 200 μL; prepared as a 1:1 Dowex:water stock, thoroughly re-suspended and diluted 2:1 with ethanol) was then added to each well and the plates incubated for 15 min at room temperature on an orbital shaker ensuring sufficient agitation for resin suspension (550 RPM). The reaction mixture was then transferred to a 96 well filter plate (Millipore; 0.45 μm pore size) and filtered into a receiving 96-well plate to remove the dowex suspension. […]

T1 sequence (Q08499 1-745 isoform Q08499-6): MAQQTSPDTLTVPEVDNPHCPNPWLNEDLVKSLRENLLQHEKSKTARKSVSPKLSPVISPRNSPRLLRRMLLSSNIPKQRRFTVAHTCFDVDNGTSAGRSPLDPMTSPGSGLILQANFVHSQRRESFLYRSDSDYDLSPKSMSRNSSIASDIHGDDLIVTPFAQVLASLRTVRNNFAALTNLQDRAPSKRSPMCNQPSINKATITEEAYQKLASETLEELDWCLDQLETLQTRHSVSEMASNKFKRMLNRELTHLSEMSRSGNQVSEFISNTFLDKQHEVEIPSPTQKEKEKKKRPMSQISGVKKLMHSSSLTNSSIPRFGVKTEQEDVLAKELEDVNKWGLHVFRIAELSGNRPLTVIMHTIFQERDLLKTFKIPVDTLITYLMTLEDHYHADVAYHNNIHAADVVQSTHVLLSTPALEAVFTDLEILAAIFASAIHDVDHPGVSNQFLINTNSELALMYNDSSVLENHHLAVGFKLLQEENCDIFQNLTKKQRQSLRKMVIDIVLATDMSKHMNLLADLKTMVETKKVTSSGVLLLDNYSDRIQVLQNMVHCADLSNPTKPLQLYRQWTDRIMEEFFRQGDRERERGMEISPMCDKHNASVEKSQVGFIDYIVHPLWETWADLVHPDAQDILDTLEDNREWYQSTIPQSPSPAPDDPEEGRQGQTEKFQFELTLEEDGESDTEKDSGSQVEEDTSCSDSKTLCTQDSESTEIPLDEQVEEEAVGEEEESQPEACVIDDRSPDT

Row | activation at 100 µM | activation of PDE4D5 (FIG. 1) (concentration-response) | SMILES
1 | 115% |  | Cc1ccc(-c2nc3cc(C(=O)N[C@H]4CCOc5ccccc54)ccc3[nH]2)cn1 [Example 2, (S)—N-(chroman-4-yl)-2-(6-methylpyridin-3-yl)-1H-benzo[d]imidazole-5-carboxamide]
2 | 140% | concentration-dependent activation | Cc1cncc(-c2nc3cc(C(=O)N[C@H]4CCOc5ccccc54)ccc3[nH]2)c1 [Example 4, (S)—N-(chroman-4-yl)-2-(5-methylpyridin-3-yl)-1H-benzo[d]imidazole-5-carboxamide]
3 | 45% |  | Cc1cncc(-c2nc3ccc(C(=O)N[C@H]4CCOc5ccccc54)cc3n2C)c1 [Example 28, (S)—N-(chroman-4-yl)-1-methyl-2-(5-methylpyridin-3-yl)-1H-benzo[d]imidazole-6-carboxamide]
4 | 33% |  | Cc1ccncc1-c1nc2cc(C(=O)N[C@H]3CCOc4ccccc43)ccn2n1 [Example 53, (S)—N-(chroman-4-yl)-2-(4-methylpyridin-3-yl)-[1,2,4]triazolo[1,5-a]pyridine-7-carboxamide]
